From article PMC5945843, “Direct neurotransmitter activation of voltage-gated potassium channels” (Nature Communications, 2018)
Several values for one entry are separate records, joined by “and”; a condition that tells them apart may be missing. Equal values may be shown once. Entries after “also recorded” stand apart in the source; their conditions may differ. Read-outs that look alike come from different tables or passages of the source.

Tests used:
[1] = target: heteromeric KCNQ2/3 channels (Homo sapiens, UniProt O43525+O43526); test: TEVC in Xenopus oocytes; format: cell-based; conditions: for EC50: at −60 mV; for effect of compound alone on KCNQ2/3 current: 100 µM
Source text: cRNA transcripts encoding human KCNQ1, KCNQ2, KCNQ3, KCNQ4, KCNQ5, KCNA1, or KCNE1 were generated by in vitro transcription using the T7 polymerase mMessage mMachine kit (Thermo Fisher Scientific), after vector linearization, from complementary DNA (cDNA) sub-cloned into plasmids incorporating Xenopus laevis β-globin 5′ and 3′ untranslated regions flanking the coding region to enhance translation and cRNA stability. cRNA was quantified by spectrophotometry. […] Defolliculated stage V and VI Xenopus laevis oocytes (Ecocyte Bioscience, Austin, TX) were injected with Kv channel α subunit cRNAs (5–10 ng).
Oocytes were placed in a small-volume oocyte bath (Warner) and viewed with a dissection microscope. Chemicals were sourced from Sigma. Bath solution was (in mM): 96 NaCl, 4 KCl, 1 MgCl2, 1 CaCl2, 10 HEPES (pH 7.6). […] Valeric acid was stored as a 5 mM stock in Ringer’s solution at 4 °C and diluted to working concentrations each experimental day. β-hydroxybutyric acid was stored at 4 °C as a 480 mM stock in 100% ethanol and diluted to working concentrations each experimental day. All compounds were introduced to the recording bath via gravity perfusion at a constant flow of 1 ml per min for 3 min prior to recording. Pipettes were of 1–2 MΩ resistance when filled with 3 M KCl. Currents were recorded in response to pulses between −80 mV and +40 mV at 20 mV intervals, or a single pulse to +40 mV, from a holding potential of −80 mV, to yield current-voltage relationships, current magnitude, and for quantifying activation rate. Deactivation was recorded at −80 mV after a single activating pulse to +40 mV, from a holding potential of −80 mV. […] TEVC data analysis was performed with Clampfit (Molecular Devices) and Graphpad Prism software (GraphPad, San Diego, CA, USA); values are stated as mean ± SEM. Normalized tail currents were plotted versus prepulse voltage and fitted with a single Boltzmann function:1 g=(A1-A2)/1+expV1/2-V∕VS+A2, where g is the normalized tail conductance, A1 is the initial value at −∞, A2 is the final value at +∞, V1/2 is the half-maximal voltage of activation, and VS the slope factor. Activation and deactivation kinetics were fitted with single exponential functions.

[2] = test system: canonical GABAA receptors; design: method as in PMID 17717222; conditions: up to 5 mM BHB; cited from earlier work
KCNQ3* = test system: KCNQ3*; design: method as in PMID 26333338; conditions: read-out: EC50 (sensitivity previously reported); cited from earlier work
[3] = test system: native M-current in mouse DRG neurons; test: Perforated patch-clamp of dorsal root ganglion neurons; format: cell-based; conditions: XE991 10 µM in combination with GABA 100 µM
Experimental: Adult male mice were purchased from Jackson Labs and then housed and used according to a protocol approved by the Institutional Animal Care and Use Committee of University of California, Irvine, and consistent with recommendations in the NIH Guide for the Care and Use of Laboratory Animals (8th edition, 2011). […]. DRG neurons were then cultured on poly-L-lysine and laminin-coated plastic coverslips in RPMI 1640 with 10% horse serum and 1% penicillin/streptomycin at 37 °C for 1–4 days before electrophysiological recordings were performed using perforated patch clamp. Amphotericin B (VWR, Radnor, PA) was dissolved in DMSO at 5 mg/ml (stock solution), then diluted to 150–200 µg/ml in intracellular solution and sonicated with a probe sonicator on ice for 5 s, kept at room temperature in the dark, and replaced every hour with a fresh solution from the stock. The working amphotericin solution was backfilled into borosilicate glass electrodes (3–5 MΩ) previously tip-filled to ~0.5 mm with intracellular solution lacking amphotericin B, immediately prior to sealing onto individual neurons. After whole-cell configuration was achieved and capacitance stabilized, whole-cell recordings were performed essentially as described in the prior paragraph, with the following differences: neurons were held at −20 mV to inactivate other channels before the test pulses; offline leak subtraction was performed.

[4] = test system: native M-current in PC12 cells; test: Whole-cell patch clamp of NGF-differentiated PC12 cells; format: cell-based, rat
Experimental: CHO cells (ATCC) were seeded on poly-L-lysine-treated glass coverslips in 24-well plates and transfected the next day using 0.5 µg each of mouse KCNQ2 and KCNQ3 cDNA in a CMV vector per well in normal media (DMEM with 10% FBS and 1% penicillin/streptomycin). The transfection reagent used was TransIT-LT1 (Mirus Bio LLC, Madison, WI, USA) and cells were patched 48–72 h post transfection. […] Media was replenished every 3 days and cultures were split once a week. […] Cell culture plastic ware and reagents were purchased from VWR and Fisher Scientific unless otherwise stated.
For both CHO cells and PC12 cells, currents were recorded in whole-cell mode at room temperature (22–25 °C) with 3–6 MΩ borosilicate glass electrodes backfilled with solution containing (in mM): 90 K acetate, 20 KCl, 40 HEPES, 3 MgCl2, 1 CaCl2, 3 EGTA-KOH, 2 MgATP; pH 7.2.
The pClamp8 (Molecular Devices) software package was used for data acquisition and Clampfit was used for analysis, along with Graphpad Prism 7.0 (Graphpad).

KCNQ5 = KCNQ5 (Homo sapiens, UniProt Q9NR82); test: 3H-GABA radioligand binding in Xenopus oocytes; conditions: extracellularly applied, 100 nM
KCNQ1 = KCNQ1 (Homo sapiens, UniProt P51787); test: 3H-GABA radioligand binding in Xenopus oocytes; conditions: extracellularly applied, 100 nM
KCNQ4 = KCNQ4 (Homo sapiens, UniProt P56696); test: 3H-GABA radioligand binding in Xenopus oocytes; conditions: extracellularly applied, 100 nM
GABA receptors = test system: GABA receptors; design: method as in PMID 25779225; conditions: cited from earlier work
[5] = 100 µM compound with 10 µM GABA
[6] = 10 µM XE991 + 100 µM picrotoxin + 10 µM CGP55845, recorded after the GABA condition
[7] = Ctrl with 2 µg/ml Pertussis toxin, no GABA

heteromeric KCNQ2/3 channels, sequence (O43526 whole entry): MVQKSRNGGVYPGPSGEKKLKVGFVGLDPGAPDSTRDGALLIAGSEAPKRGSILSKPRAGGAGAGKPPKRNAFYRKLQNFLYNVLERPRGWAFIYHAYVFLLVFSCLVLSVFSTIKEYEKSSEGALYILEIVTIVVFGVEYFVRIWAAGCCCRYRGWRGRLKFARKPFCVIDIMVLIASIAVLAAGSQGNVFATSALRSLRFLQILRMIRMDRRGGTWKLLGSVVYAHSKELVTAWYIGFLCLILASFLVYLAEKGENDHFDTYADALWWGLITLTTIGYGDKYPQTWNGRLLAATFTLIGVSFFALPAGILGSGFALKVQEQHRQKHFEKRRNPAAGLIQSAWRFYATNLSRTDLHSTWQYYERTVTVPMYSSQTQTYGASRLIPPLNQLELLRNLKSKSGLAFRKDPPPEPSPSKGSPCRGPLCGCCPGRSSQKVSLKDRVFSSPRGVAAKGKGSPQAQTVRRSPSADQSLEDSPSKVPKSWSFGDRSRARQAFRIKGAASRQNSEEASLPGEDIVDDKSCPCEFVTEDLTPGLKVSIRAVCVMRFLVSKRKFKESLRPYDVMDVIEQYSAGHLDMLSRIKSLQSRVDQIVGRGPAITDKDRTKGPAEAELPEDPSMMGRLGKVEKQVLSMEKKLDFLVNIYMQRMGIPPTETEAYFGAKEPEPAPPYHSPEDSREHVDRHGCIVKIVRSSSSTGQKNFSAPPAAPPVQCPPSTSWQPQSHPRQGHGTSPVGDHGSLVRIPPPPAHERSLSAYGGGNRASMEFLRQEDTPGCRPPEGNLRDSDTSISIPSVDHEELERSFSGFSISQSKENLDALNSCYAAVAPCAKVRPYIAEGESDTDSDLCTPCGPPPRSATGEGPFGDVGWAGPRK
heteromeric KCNQ2/3 channels, sequence (O43525 whole entry): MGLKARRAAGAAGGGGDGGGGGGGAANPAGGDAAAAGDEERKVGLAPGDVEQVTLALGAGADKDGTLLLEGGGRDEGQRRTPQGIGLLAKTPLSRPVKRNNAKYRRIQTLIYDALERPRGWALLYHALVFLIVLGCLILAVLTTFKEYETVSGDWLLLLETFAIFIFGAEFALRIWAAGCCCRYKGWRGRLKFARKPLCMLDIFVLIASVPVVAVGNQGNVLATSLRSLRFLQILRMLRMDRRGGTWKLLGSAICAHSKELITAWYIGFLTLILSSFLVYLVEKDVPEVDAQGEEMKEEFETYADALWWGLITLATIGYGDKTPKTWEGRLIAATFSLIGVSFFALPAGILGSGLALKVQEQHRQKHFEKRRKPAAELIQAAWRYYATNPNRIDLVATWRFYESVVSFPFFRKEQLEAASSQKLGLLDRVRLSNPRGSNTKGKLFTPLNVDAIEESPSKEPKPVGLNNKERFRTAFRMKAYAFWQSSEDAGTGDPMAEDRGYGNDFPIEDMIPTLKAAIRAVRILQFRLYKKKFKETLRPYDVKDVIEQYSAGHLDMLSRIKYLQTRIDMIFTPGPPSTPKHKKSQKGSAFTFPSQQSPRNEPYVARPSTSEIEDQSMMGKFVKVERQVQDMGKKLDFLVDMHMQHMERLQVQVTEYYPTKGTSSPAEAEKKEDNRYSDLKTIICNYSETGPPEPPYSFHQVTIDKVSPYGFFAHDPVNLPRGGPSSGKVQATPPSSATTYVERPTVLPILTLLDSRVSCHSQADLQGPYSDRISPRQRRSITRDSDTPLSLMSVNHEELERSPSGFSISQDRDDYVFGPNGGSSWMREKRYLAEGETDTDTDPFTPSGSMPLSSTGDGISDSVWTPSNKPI

CC(=O)OCC[N+](C)(C)C [ACh, acetylcholine]
Slope [1]: 4.8 ± 2.7 mV and 3.8 ± 6.5 mV and 5.1 ± 2.5 mV and 5.6 ± 2.7 mV and 5.1 ± 1.9 mV | concentration giving maximal effect [1]: ≥ 1 µM | effect on KCNQ2/3 activity via endogenous mAChRs [1]: inhibited

CC(O)CC(=O)O (stereo not drawn) [BHB, β-hydroxybutyric acid]
BHB sensitivity [2]: BHB-insensitive | Slope ([1]; 1 µM β-Hydrox, Ctrl 6.2 ± 0.8): 5.9 ± 0.4 mV | Normalized tail current V0.5 ([1]; 1 µM β-Hydrox, Ctrl -36.1 ± 1.8): -46.1 ± 0.6 mV | Non-normalized tail current V0.5 ([1]; 1 µM β-Hydrox, Ctrl -36.4 ± 8.7): -43.9 ± 8.2 mV | Slope ([1]; 10 µM β-Hydrox, Ctrl 6.2 ± 0.8): 5.9 ± 0.4 mV | Normalized tail current V0.5 ([1]; 10 µM β-Hydrox, Ctrl -36.1 ± 1.8): -48.1 ± 0.4 mV | Non-normalized tail current V0.5 ([1]; 10 µM β-Hydrox, Ctrl -36.4 ± 8.7): -45.5 ± 7.9 mV | Slope ([1]; 100 µM β-Hydrox, Ctrl 6.2 ± 0.8): 5.9 ± 0.3 mV | Normalized tail current V0.5 ([1]; 100 µM β-Hydrox, Ctrl -36.1 ± 1.8): -50.2 ± 0.3 mV | Non-normalized tail current V0.5 ([1]; 100 µM β-Hydrox, Ctrl -36.4 ± 8.7): -46.0 ± 7.9 mV | Slope ([1]; 1 mM β-Hydrox, Ctrl 6.2 ± 0.8): 5.7 ± 0.6 mV | Normalized tail current V0.5 ([1]; 1 mM β-Hydrox, Ctrl -36.1 ± 1.8): -46.5 ± 0.9 mV | Non-normalized tail current V0.5 ([1]; 1 mM β-Hydrox, Ctrl -36.4 ± 8.7): -46.0 ± 7.4 mV | Slope ([1]; 4 mM β-Hydrox, Ctrl 6.2 ± 0.8): 4.9 ± 0.6 mV | Normalized tail current V0.5 ([1]; 4 mM β-Hydrox, Ctrl -36.1 ± 1.8): -44.9 ± 0.8 mV | Non-normalized tail current V0.5 ([1]; 4 mM β-Hydrox, Ctrl -36.4 ± 8.7): -44.7 ± 7.1 mV | EC50 [1]: 950 ± 130 nM

C[C@H](NC[C@H](O)CP(=O)(O)Cc1ccccc1)c1ccc(Cl)c(Cl)c1 [CGP55845, reference compound]
effect of compound alone on KCNQ2/3 current [1]: neither altered KCNQ2/3 currents alone | Slope ([1]; 100 µM CGP, Ctrl 6.7 ± 0.3): 6.6 ± 0.7 mV | Non-normalized tail current V0.5 ([1]; 100 µM CGP, Ctrl -44.9 ± 3.5): -45.6 ± 3.7 mV | Normalized tail current V0.5 ([1]; 100 µM CGP, Ctrl -45.1 ± 0.3): -47.1 ± 1.1 mV | effect on GABA activation of KCNQ2/3 [1, 5]: nor did it diminish GABA activation of KCNQ2/3

NCC(O)CC(=O)O (stereo not drawn) [GABOB, γ-amino-β-hydroxybutyric acid]
agonist character compared to BHB and GABA [1]: lower efficacy partial agonist | effect on retigabine activation of KCNQ2/3 [1]: reduces the efficacy | Slope ([1]; 0.01 µM GABOB, Ctrl 10.3 ± 1.3): 11.1 ± 1.8 mV | Non-normalized tail current V0.5 ([1]; 0.01 µM GABOB, Ctrl -43.8 ± 3.9): -42.7 ± 5.0 mV | Normalized tail current V0.5 ([1]; 0.01 µM GABOB, Ctrl -44.9 ± 1.5): -42.8 ± 2.0 mV | Slope ([1]; 0.1 µM GABOB, Ctrl 10.3 ± 1.3): 10.6 ± 1.6 mV | Non-normalized tail current V0.5 ([1]; 0.1 µM GABOB, Ctrl -43.8 ± 3.9): -45.8 ± 5.1 mV | Normalized tail current V0.5 ([1]; 0.1 µM GABOB, Ctrl -44.9 ± 1.5): -46.6 ± 1.9 mV | Slope ([1]; 1 µM GABOB, Ctrl 10.3 ± 1.3): 10.1 ± 1.2 mV | Non-normalized tail current V0.5 ([1]; 1 µM GABOB, Ctrl -43.8 ± 3.9): -46.4 ± 4.7 mV | Normalized tail current V0.5 ([1]; 1 µM GABOB, Ctrl -44.9 ± 1.5): -47.1 ± 1.4 mV | Slope ([1]; 10 µM GABOB, Ctrl 10.3 ± 1.3): 9.6 ± 0.9 mV | Non-normalized tail current V0.5 ([1]; 10 µM GABOB, Ctrl -43.8 ± 3.9): -46.8 ± 4.5 mV | Normalized tail current V0.5 ([1]; 10 µM GABOB, Ctrl -44.9 ± 1.5): -48.1 ± 1.2 mV | Slope ([1]; 100 µM GABOB, Ctrl 10.3 ± 1.3): 9.3 ± 0.8 mV | Non-normalized tail current V0.5 ([1]; 100 µM GABOB, Ctrl -43.8 ± 3.9): -46.3 ± 4.2 mV | Normalized tail current V0.5 ([1]; 100 µM GABOB, Ctrl -44.9 ± 1.5): -47.8 ± 0.9 mV | effect on GABA activation of KCNQ2/3 [1, 5]: diminished the KCNQ2/3-activating efficacy of GABA | Slope ([1]; 1 mM GABOB, Ctrl 10.3 ± 1.3): 9.2 ± 0.7 mV | Non-normalized tail current V0.5 ([1]; 1 mM GABOB, Ctrl -43.8 ± 3.9): -46.7 ± 4.0 mV | Normalized tail current V0.5 ([1]; 1 mM GABOB, Ctrl -44.9 ± 1.5): -48.0 ± 0.9 mV | lowering of retigabine efficacy ([1]; at -60 mV): almost fourfold | EC50 [1]: 100 ± 10 nM

Cc1cc(C)c(NC(=O)C2CC3CCC2C3)c(C)c1 (stereo not drawn) [ML-213]
EC50 (KCNQ3*): 3.6 µM

O=C1c2ccccc2C(Cc2ccncc2)(Cc2ccncc2)c2ccccc21 [XE991]
inhibition of deactivating current at −60 mV [3]: > 50% | Normalized tail current V0.5 [4, 6]: -4.9 ± 4.3 mV | Slope [4, 6]: 18.4 ± 2.2 mV | effect on GABA-dependent shift of tail currents ([4]; XE991 10 µM): removed the GABA-dependent negative-shift | effect on GABA-augmented KCNQ2/3 current ([1]; XE991 50 µM): readily inhibited

[3H]C(CN)C([3H])C(=O)O (stereo not drawn) [^3H-GABA]
3H-GABA binding (KCNQ5): bound | 3H-GABA binding (KCNQ1): did not | 3H-GABA binding (KCNQ4): bound

NCC(CC(=O)O)c1ccc(Cl)cc1 (stereo not drawn) [baclofen, reference compound]
effect of compound alone on KCNQ2/3 current [1]: insensitive | Slope ([1]; 100 µM Baclofen, Ctrl 9.3 ± 0.3): 9.2 ± 0.5 mV | Non-normalized tail current V0.5 ([1]; 100 µM Baclofen, Ctrl -42.6 ± 2.3): -45.4 ± 2.5 mV | Normalized tail current V0.5 ([1]; 100 µM Baclofen, Ctrl -44.2 ± 0.4): -46.4 ± 0.6 mV

NCCc1ccc(O)c(O)c1 [dopamine]
effect of compound alone on KCNQ2/3 current [1]: no effect | Slope ([1]; 100 µM Dopamine, Ctrl 8.4 ± 1.5): 7.2 ± 0.6 mV | Normalized tail current V0.5 ([1]; 100 µM Dopamine, Ctrl -40.8 ± 1.4): -41.9 ± 0.6 mV | Non-normalized tail current V0.5 ([1]; 100 µM Dopamine, Ctrl -41.6 ± 5.3): -41.8 ± 3.6 mV

CCOC(=O)Nc1ccc(NCc2ccc(F)cc2)cc1N [retigabine]
EC50 (KCNQ3*): 11.6 µM | action on GABA receptors (GABA receptors): weak activator

NCC(CS(=O)(=O)O)c1ccc(Cl)cc1 (stereo not drawn) [saclofen, reference compound]
effect on GABA activation of KCNQ2/3 [1]: nor did it diminish GABA activation of KCNQ2/3 | effect of compound alone on KCNQ2/3 current [1]: neither altered KCNQ2/3 currents alone | Slope ([1]; 100 µM Saclofen, Ctrl 5.6 ± 1.1): 5.5 ± 0.8 mV | Non-normalized tail current V0.5 ([1]; 100 µM Saclofen, Ctrl -41.1 ± 6.7): -42.8 ± 6.6 mV | Normalized tail current V0.5 ([1]; 100 µM Saclofen, Ctrl -42.3 ± 0.8): -42.6 ± 0.8 mV

CCCCC(=O)O [valeric acid, reference compound]
Slope ([1]; 500 µM Valeric acid, Ctrl 9.1 ± 0.5): 8.5 ± 0.6 mV | Normalized tail current V0.5 ([1]; 500 µM Valeric acid, Ctrl -44.2 ± 0.6): -45.1 ± 0.6 mV | Non-normalized tail current V0.5 ([1]; 500 µM Valeric acid, Ctrl -44.5 ± 5.4): -45.6 ± 4.9 mV | Slope ([1]; 500 mM Valeric acid, Ctrl 9.1 ± 0.5): 8.5 ± 0.6 mV | Normalized tail current V0.5 ([1]; 500 mM Valeric acid, Ctrl -44.2 ± 0.6): -45.1 ± 0.6 mV | Non-normalized tail current V0.5 ([1]; 500 mM Valeric acid, Ctrl -44.5 ± 5.4): -45.9 ± 4.9 mV | activity on KCNQ2/3 ([1]; up to 5 mM): inactive; also recorded: no effects

Pertussis toxin
Non-normalized tail current V0.5 [1, 7]: -41.9 ± 6.3 mV | Normalized tail current V0.5 [1, 7]: -40.9 ± 1.4 mV | Slope [1, 7]: 8.8 ± 1.4 mV

picrotoxin
Slope ([4]; 100 µM picrotoxin + 10 µM CGP55845, Ctrl (extracellular solution only) 20.3 ± 4.5): 17.4 ± 3.0 mV | Normalized tail current V0.5 ([4]; 100 µM picrotoxin + 10 µM CGP55845, Ctrl (extracellular solution only) -9.2 ± 4.9): -7.1 ± 7.6 mV
